Source: ChEMBL document CHEMBL2069199, “Development of isoform selective PI3-kinase inhibitors as pharmacological tools for elucidating the PI3K pathway” (Bioorg Med Chem Lett, 2012)

Experiments:
[1] = target: T1, Phosphatidylinositol 4,5-bisphosphate 3-kinase catalytic subunit alpha isoform (Homo sapiens, UniProt P42336); test: Inhibition of recombinant GST-tagged PI3K p110alpha using [32P]ATP after 60 mins by scintillation proximity assay
Rattus norvegicus [2] = test: Volume of distribution at steady state in Wistar rat at 10 mg/kg, po; assay type: ADME, organism-based; parameters: dose 10 mg/kg, route oral; conditions: in vivo
[3] = target: T2, Phosphatidylinositol 4,5-bisphosphate 3-kinase catalytic subunit delta isoform (Homo sapiens, UniProt O00329); test: Inhibition of recombinant GST-tagged PI3K p110delta using [32P]ATP after 60 mins by scintillation proximity assay
T2 sequence (O00329 whole entry): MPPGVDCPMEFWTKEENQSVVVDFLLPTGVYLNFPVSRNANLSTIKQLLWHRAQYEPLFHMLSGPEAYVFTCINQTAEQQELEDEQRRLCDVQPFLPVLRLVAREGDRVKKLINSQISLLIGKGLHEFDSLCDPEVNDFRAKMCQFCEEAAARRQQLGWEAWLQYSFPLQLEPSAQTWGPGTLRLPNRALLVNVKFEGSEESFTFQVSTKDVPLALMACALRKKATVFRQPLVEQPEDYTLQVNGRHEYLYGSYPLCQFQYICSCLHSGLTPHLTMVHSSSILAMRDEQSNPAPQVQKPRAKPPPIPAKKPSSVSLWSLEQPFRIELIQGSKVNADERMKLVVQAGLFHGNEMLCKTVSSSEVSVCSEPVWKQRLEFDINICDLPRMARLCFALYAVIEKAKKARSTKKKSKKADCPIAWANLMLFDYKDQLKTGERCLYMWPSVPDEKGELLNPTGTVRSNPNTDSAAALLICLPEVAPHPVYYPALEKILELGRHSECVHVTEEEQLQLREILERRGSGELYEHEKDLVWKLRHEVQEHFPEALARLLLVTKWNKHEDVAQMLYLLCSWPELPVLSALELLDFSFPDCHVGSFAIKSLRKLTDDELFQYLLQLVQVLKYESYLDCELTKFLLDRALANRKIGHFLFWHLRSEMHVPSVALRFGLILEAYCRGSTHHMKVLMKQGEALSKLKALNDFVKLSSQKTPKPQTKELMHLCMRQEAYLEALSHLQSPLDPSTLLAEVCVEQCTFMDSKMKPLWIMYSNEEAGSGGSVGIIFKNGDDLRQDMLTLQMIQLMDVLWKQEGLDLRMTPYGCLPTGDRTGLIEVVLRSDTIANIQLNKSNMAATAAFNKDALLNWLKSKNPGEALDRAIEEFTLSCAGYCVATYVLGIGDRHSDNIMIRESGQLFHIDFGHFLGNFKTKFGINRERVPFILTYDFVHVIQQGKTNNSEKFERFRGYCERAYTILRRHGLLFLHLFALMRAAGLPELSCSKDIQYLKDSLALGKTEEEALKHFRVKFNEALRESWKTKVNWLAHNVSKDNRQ

[4] = Antiinflammatory activity in human neutrophils assessed as inhibition of fMLP-induced oxidative burst; assay type: functional, cell-based; conditions: neutrophil
[5] = target: Serine/threonine-protein kinase mTOR (Homo sapiens, UniProt P42345); test: Inhibition of mTOR
[6] = Cmax in Wistar rat at 10 mg/kg, po; assay type: ADME, organism-based; parameters: dose 10 mg/kg, route oral; conditions: in vivo
[7] = Tmax in Wistar rat at 10 mg/kg, po; assay type: ADME, organism-based; parameters: dose 10 mg/kg, route oral; conditions: in vivo
[8] = target: DNA-dependent protein kinase catalytic subunit (Homo sapiens, UniProt P78527); test: Inhibition of DNA-PK
Sequence of DNA-dependent protein kinase catalytic subunit (P78527 whole entry): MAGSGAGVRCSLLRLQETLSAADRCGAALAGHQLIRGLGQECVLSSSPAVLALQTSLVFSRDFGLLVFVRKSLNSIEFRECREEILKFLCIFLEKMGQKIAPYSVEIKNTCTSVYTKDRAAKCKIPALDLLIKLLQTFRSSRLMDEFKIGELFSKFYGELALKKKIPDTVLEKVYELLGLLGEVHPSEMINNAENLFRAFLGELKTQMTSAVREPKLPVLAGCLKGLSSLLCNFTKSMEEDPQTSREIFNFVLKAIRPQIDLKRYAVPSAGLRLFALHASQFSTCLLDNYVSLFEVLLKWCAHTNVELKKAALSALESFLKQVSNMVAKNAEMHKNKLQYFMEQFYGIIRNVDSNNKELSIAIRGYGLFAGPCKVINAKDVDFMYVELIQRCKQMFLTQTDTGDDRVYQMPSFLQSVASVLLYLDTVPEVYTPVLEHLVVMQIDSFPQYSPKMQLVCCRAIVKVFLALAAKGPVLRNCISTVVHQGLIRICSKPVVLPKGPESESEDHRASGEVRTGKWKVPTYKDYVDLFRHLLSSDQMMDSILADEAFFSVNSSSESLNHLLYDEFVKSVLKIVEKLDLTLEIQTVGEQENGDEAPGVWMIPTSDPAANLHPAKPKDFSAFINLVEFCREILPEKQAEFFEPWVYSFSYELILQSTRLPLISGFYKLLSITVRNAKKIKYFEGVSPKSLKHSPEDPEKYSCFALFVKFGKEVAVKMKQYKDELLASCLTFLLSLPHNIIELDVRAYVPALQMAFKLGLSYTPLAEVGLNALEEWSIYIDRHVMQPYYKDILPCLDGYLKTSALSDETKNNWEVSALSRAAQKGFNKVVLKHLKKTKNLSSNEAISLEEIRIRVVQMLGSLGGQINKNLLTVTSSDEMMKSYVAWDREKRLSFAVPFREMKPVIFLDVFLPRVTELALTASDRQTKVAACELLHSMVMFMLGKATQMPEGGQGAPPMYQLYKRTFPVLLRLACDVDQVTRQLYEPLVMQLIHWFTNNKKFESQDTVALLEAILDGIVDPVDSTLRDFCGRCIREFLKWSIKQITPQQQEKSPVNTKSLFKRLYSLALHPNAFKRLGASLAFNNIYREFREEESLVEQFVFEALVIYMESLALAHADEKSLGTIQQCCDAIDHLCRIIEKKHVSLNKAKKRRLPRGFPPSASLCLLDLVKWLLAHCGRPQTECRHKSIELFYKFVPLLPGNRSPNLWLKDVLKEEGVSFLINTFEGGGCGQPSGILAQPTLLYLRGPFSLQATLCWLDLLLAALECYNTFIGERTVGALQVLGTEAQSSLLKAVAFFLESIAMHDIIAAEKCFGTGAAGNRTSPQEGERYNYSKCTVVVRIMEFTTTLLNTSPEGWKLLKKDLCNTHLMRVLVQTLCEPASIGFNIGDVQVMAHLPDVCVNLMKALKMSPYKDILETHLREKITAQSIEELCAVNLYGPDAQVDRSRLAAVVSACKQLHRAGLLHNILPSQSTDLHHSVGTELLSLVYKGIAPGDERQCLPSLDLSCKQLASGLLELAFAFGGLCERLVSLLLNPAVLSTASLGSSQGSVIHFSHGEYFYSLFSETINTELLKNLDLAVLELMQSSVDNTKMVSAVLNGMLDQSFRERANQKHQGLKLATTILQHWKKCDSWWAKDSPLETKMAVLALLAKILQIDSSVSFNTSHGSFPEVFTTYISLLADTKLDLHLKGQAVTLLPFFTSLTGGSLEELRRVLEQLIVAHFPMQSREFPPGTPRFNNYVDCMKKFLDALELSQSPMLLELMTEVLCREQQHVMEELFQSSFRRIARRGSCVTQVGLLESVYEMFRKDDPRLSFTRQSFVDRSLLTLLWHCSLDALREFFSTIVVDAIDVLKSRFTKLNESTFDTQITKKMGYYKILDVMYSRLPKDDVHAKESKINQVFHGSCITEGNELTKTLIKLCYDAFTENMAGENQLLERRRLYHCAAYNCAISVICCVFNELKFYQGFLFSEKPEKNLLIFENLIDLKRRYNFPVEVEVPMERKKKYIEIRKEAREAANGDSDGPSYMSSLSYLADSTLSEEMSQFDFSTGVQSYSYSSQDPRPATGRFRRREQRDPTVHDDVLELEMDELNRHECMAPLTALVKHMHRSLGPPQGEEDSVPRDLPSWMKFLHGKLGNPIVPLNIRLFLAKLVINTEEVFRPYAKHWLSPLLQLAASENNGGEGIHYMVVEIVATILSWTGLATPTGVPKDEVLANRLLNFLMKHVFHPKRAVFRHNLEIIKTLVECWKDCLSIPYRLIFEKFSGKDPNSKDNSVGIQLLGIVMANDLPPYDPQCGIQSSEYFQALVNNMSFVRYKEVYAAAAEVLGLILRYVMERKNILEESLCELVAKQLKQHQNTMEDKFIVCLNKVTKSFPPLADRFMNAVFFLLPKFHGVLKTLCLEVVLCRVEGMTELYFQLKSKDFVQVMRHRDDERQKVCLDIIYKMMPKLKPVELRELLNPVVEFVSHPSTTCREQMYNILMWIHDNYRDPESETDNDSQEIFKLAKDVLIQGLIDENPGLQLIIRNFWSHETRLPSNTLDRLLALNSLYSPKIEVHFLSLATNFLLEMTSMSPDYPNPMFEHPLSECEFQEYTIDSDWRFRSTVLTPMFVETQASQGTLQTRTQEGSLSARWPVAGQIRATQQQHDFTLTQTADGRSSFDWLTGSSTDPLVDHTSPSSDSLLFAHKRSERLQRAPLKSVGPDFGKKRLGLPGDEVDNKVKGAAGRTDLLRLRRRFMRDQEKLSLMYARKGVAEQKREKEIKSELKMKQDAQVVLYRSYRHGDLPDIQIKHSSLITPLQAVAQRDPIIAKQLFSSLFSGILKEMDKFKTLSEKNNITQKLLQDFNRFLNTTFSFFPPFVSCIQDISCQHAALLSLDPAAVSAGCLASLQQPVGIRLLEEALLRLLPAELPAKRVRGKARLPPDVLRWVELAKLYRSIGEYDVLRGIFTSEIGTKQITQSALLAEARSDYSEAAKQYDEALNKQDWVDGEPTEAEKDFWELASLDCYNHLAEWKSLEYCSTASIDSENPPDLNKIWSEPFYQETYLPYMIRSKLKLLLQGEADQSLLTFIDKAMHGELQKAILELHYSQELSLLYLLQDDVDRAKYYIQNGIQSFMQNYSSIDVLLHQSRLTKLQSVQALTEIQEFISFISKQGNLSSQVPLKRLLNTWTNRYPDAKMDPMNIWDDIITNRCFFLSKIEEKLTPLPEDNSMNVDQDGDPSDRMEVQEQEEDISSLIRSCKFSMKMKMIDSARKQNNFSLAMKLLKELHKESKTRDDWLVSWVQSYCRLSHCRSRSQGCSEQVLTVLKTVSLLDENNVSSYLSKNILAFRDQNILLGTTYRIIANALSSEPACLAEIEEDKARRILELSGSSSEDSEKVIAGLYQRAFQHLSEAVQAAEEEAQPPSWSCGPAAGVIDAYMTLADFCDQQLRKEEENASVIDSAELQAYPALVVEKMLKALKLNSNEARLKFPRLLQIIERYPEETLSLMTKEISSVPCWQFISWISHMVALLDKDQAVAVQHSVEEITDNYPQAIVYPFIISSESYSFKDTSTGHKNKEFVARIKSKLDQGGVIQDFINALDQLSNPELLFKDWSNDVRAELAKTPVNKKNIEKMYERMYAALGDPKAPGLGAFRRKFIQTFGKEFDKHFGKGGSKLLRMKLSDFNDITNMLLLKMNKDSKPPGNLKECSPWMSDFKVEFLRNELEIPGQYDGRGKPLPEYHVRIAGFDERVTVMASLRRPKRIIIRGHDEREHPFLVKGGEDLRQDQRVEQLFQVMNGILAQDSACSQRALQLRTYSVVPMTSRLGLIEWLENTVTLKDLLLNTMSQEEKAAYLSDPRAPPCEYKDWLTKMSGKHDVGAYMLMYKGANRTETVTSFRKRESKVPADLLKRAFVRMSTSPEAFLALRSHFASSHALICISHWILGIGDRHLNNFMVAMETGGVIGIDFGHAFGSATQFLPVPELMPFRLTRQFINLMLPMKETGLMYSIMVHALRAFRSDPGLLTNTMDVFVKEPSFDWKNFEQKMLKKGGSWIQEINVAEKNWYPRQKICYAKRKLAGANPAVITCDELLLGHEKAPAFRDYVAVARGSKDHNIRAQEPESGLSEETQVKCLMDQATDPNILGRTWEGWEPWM

[9] = Half life in Wistar rat at 10 mg/kg, po; assay type: ADME, organism-based; parameters: dose 10 mg/kg, route oral; conditions: in vivo
Rattus norvegicus [10] = test: (§1) AUC in Wistar rat at 10 mg/kg, po; assay type: ADME, organism-based, Plasma; parameters: dose 10 mg/kg, route oral; conditions: in vivo
[11] = target: Phosphatidylinositol 3-kinase catalytic subunit type 3 (Homo sapiens, UniProt Q8NEB9); test: Inhibition of Vps34
Sequence of Phosphatidylinositol 3-kinase catalytic subunit type 3 (Q8NEB9 whole entry): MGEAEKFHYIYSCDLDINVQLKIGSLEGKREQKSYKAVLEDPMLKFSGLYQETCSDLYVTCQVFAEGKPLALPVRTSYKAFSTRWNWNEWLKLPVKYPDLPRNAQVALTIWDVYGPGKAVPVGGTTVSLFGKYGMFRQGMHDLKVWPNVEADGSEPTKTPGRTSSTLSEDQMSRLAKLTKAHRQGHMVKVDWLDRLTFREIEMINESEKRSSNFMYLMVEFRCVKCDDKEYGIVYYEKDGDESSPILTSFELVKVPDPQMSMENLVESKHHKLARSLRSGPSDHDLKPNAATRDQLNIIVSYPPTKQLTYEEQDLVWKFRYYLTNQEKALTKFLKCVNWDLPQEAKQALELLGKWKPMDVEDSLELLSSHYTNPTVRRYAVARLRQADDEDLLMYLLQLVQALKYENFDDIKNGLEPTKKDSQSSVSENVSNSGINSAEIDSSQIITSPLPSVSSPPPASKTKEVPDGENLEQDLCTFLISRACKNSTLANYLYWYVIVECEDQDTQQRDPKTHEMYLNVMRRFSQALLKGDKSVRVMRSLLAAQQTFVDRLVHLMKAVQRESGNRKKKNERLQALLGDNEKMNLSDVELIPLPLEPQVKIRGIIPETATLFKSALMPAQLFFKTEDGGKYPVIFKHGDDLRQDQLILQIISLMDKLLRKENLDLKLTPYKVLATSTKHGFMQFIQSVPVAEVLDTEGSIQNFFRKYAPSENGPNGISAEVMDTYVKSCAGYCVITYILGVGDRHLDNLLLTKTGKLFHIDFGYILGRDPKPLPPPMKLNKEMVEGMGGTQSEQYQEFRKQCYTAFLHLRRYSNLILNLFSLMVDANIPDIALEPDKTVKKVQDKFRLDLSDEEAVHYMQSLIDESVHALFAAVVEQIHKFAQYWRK

[12] = target: Phosphatidylinositol 4-kinase beta (Homo sapiens, UniProt Q9UBF8); test: Inhibition of PI4Kbeta
[13] = target: T3, Phosphatidylinositol 4,5-bisphosphate 3-kinase catalytic subunit gamma isoform (Homo sapiens, UniProt P48736)
Description: Inhibition of recombinant GST-tagged PI3K p110gamma using [32P]ATP after 60 mins by scintillation proximity assay

[14] = Antiinflammatory activity in mouse B cells assessed as inhibition of mitogen-induced proliferation; assay type: functional, cell-based
[15] = Aqueous solubility of the compound at pH 6.8; assay type: physicochemical
[16] = Antiinflammatory activity in human B cells assessed as inhibition of mitogen-induced proliferation; assay type: functional, cell-based; conditions: B-cell
[17] = target: T4, Phosphatidylinositol 4,5-bisphosphate 3-kinase catalytic subunit beta isoform (Homo sapiens, UniProt P42338); test: Inhibition of recombinant GST-tagged PI3K p110beta using [32P]ATP after 60 mins by scintillation proximity assay
[18] = Oral bioavailability in Wistar rat at 10 mg/kg; assay type: ADME, organism-based; conditions: in vivo
[19] = as §1; assay type: ADME, organism-based, Plasma; parameters: dose 10 mg/kg, route oral; conditions: Wistar, plasma
[20] = Clearance in Wistar rat at 10 mg/kg, po; assay type: ADME, organism-based; parameters: dose 10 mg/kg, route oral; conditions: in vivo
[21] = target: T1, Phosphatidylinositol 4,5-bisphosphate 3-kinase catalytic subunit alpha isoform; test: Inhibition of recombinant GST-tagged PI3K p110alpha by KinaseGlo assay
[22] = target: T4, Phosphatidylinositol 4,5-bisphosphate 3-kinase catalytic subunit beta isoform; test: Inhibition of recombinant GST-tagged PI3K p110beta by KinaseGlo assay
[23] = target: T2, Phosphatidylinositol 4,5-bisphosphate 3-kinase catalytic subunit delta isoform; test: Inhibition of recombinant GST-tagged PI3K p110delta by KinaseGlo assay
[24] = target: T3, Phosphatidylinositol 4,5-bisphosphate 3-kinase catalytic subunit gamma isoform; test: Inhibition of recombinant GST-tagged PI3K p110gamma by KinaseGlo assay
[25] = AUC in Wistar rat at 5 mg/kg, po; assay type: ADME, organism-based; parameters: dose 5 mg/kg, route oral; conditions: plasma
[26] = target: Dual specificity protein kinase CLK2 (Homo sapiens, UniProt P49760); test: Inhibition of CLK2
[27] = Tmax in Wistar rat at 5 mg/kg, po; assay type: ADME, organism-based; parameters: dose 5 mg/kg, route oral; conditions: in vivo
Rattus norvegicus [28] = test: Volume of distribution at steady state in Wistar rat at 5 mg/kg, po; assay type: ADME, organism-based; parameters: dose 5 mg/kg, route oral; conditions: in vivo
[29] = Cmax in Wistar rat at 5 mg/kg, po; assay type: ADME, organism-based; parameters: dose 5 mg/kg, route oral; conditions: in vivo
[30] = target: Dual specificity protein kinase CLK1 (Homo sapiens, UniProt P49759); test: Inhibition of CLK1
[31] = Half life in Wistar rat at 5 mg/kg, po; assay type: ADME, organism-based; parameters: dose 5 mg/kg, route oral; conditions: in vivo
[32] = Oral bioavailability in Wistar rat at 5 mg/kg; assay type: ADME, organism-based; conditions: in vivo
[33] = Clearance in Wistar rat at 5 mg/kg, po; assay type: ADME, organism-based; parameters: dose 5 mg/kg, route oral; conditions: in vivo

Row | Compound | Ki [1] | Ki [3] | IC50 [4] | Ki [13] | Ki [17] | further results
1 | Cc1cc(NC(=O)CCNC(=O)Nc2nc(C)c(-c3ccc(-n4cccn4)cc3)s2)no1 | 150 nM | 4 nM | 720 nM | 1020 nM | 340 nM | Vdss (Rattus norvegicus [2]): 0.4 L/kg; IC50 [5]: > 9.1 µM; Cmax [6]: 50 nM; Tmax [7]: 8 h; IC50 [8]: > 10 µM; half-life [9]: 36 min; AUC (Rattus norvegicus [10]): 0.69 µM·h; IC50 [11]: > 9.1 µM; IC50 [12]: 40 nM; IC50 [14]: 14 nM; solubility [15]: < 2 µg/mL; IC50 [16]: 5 nM; bioavailability [18]: 3%
2 | CC(=O)c1ccc(-c2sc(NC(=O)NCCC(=O)NC(C)(C)C)nc2C)cc1 | 1890 nM | 740 nM | 220 nM | – | 250 nM | Vdss (Rattus norvegicus [2]): 1.4 L/kg; IC50 [5]: > 9.1 µM; Cmax [6]: 1720 nM; Tmax [7]: 0.5 h; IC50 [8]: > 10 µM; half-life [9]: 48 min; AUC [19]: 10.8 µM·h; CL/F [20]: 23 mL/min/kg; IC50 [11]: > 9.1 µM; IC50 [12]: 240 nM; IC50 [14]: 760 nM; IC50 [16]: 1160 nM; bioavailability [18]: 57%
3 | CC(=O)Nc1nc(C)c(-c2ccc(S(N)(=O)=O)cc2)s1 | 110 nM | 210 nM | 2600 nM | 110 nM | 1430 nM | –
4 | CC(=O)Nc1nc(C)c(-c2ccc(S(C)(=O)=O)cc2)s1 | 200 nM | 190 nM | 1930 nM | 230 nM | 1360 nM | –
5 | CC(=O)Nc1nc(C)c(-c2ccc(S(C)(=O)=O)c(F)c2)s1 | – | – | 220 nM | – | – | –
6 | CC(=O)Nc1nc(C)c(-c2ccc(C(C)=O)cc2)s1 | 190 nM | 260 nM | 1760 nM | 260 nM | 1940 nM | –
7 | Cc1nc(NC(=O)N2CCC[C@H]2C(N)=O)sc1-c1ccc(S(C)(=O)=O)cc1 | 187 nM | 3620 nM | – | 5810 nM | > 10000 nM | –
8 | NC(=O)[C@@H]1CCCN1C(=O)Nc1nc2ccc(-c3cnc(N)c(C(F)(F)F)c3)cc2s1 | – | – | – | – | – | IC50 [21]: 40 nM; IC50 [22]: 2940 nM; IC50 [23]: 540 nM; IC50 [24]: 1190 nM
9 | Cc1cc(NC(=O)CCNC(=O)Nc2nc(C)c(-c3ccc(S(C)(=O)=O)c(F)c3)s2)no1 | 110 nM | 3 nM | – | 120 nM | 860 nM | –
10 | Cc1nc(NC(=O)NCCC(=O)OC(C)(C)C)sc1-c1ccc(S(C)(=O)=O)c(F)c1 | 2130 nM | 380 nM | – | 20 nM | 90 nM | –
11 | CCn1nnc(CCNC(=O)Nc2nc(C)c(-c3ccc(S(C)(=O)=O)c(F)c3)s2)n1 | 1400 nM | 470 nM | 270 nM | – | 320 nM | AUC [25]: 4.31 µM·h; IC50 [5]: > 9.1 µM; IC50 [26]: 117 nM; IC50 [8]: > 10 µM; Tmax [27]: 1 h; Vdss (Rattus norvegicus [28]): 0.6 L/kg; Cmax [29]: 490 nM; IC50 [30]: 118 nM; IC50 [11]: > 9.1 µM; IC50 [12]: 1330 nM; IC50 [14]: 590 nM; half-life [31]: 108 min; bioavailability [32]: 24%; CL/F [33]: 4 mL/min/kg; IC50 [16]: 1610 nM

Further lines, with some results ahead:

Row | Ki [1] | Ki [3] | IC50 [4] | Ki [13] | Ki [17] | Compound | further results
12 | 35 nM | 79 nM | 1930 nM | 57 nM | 1300 nM | CC(=O)Nc1nc(C)c(-c2ccc(S(C)(=O)=O)c(Cl)c2)s1 | –
13 | 11 nM | 61 nM | 340 nM | 32 nM | 550 nM | CC(=O)Nc1nc(C)c(-c2ccc(S(C)(=O)=O)c(Br)c2)s1 | –
14 | 45 nM | 79 nM | 300 nM | 62 nM | 760 nM | CC(=O)Nc1nc(C)c(-c2ccc(S(C)(=O)=O)c(C#N)c2)s1 | –
15 | 28 nM | 74 nM | 290 nM | 61 nM | 870 nM | CC(=O)Nc1nc(C)c(-c2ccc(S(C)(=O)=O)c(C(F)(F)F)c2)s1 | –
16 | 30 nM | 19 nM | 320 nM | 110 nM | 410 nM | CC(=O)Nc1nc(C)c(-c2ccc(-n3cccn3)cc2)s1 | –
17 | 20 nM | 1670 nM | – | 1140 nM | > 10000 nM | Cc1nc(NC(=O)N2CCC[C@H]2C(N)=O)sc1-c1ccc(S(C)(=O)=O)c(C(F)(F)F)c1 | –
18 | 5 nM | 220 nM | 930 nM | 530 nM | 2000 nM | Cc1nc(NC(=O)N2CCC[C@H]2C(N)=O)sc1-c1ccc(-n2cccn2)cc1 | Vdss (Rattus norvegicus [2]): 1.29 L/kg; IC50 [5]: > 9.1 µM; Cmax [6]: 280 nM; Tmax [7]: 4 h; IC50 [8]: > 10 µM; half-life [9]: 42 min; AUC [19]: 4.1 µM·h; CL/F [20]: 21 mL/min/kg; IC50 [11]: > 9.1 µM; IC50 [12]: 920 nM; IC50 [14]: 370 nM; IC50 [16]: 320 nM; bioavailability [18]: 21%
